# The source made the active and inactive calls. No cut-off for these calls is given here.
# Tests used:
# COLO 205 = assay: Growth inhibition of human COLO205 cells at 10 uM after 48 hrs by sulforhodamine B assay; format: functional
# OVCAR-5 = assay: Growth inhibition of human OVCAR5 cells at 10 uM after 48 hrs by sulforhodamine B assay; format: functional; conditions: OVCAR-5, 48 h, read-out: GI
# KM12 = assay: Growth inhibition of human KM12 cells at 10 uM after 48 hrs by sulforhodamine B assay; format: functional
# A498 = assay: Growth inhibition of human A498 cells at 10 uM after 48 hrs by sulforhodamine B assay; format: functional
# SK-MEL-28 = assay: Growth inhibition of human SK-MEL-28 cells at 10 uM after 48 hrs by sulforhodamine B assay; format: functional, cell-based
# HCT-15 = assay: Growth inhibition of human HCT15 cells at 10 uM after 48 hrs by sulforhodamine B assay; format: functional
# HOP-62 = assay: Growth inhibition of human HOP62 cells at 10 uM after 48 hrs by sulforhodamine B assay; format: functional; conditions: HOP-62, 48 h, read-out: GI
# T47D = assay: Growth inhibition of human T47D cells at 10 uM after 48 hrs by sulforhodamine B assay; format: functional; conditions: read-out: GI
# SF-539 = assay: Growth inhibition of human SF539 cells at 10 uM after 48 hrs by sulforhodamine B assay; format: functional; conditions: SF-539, 48 h, read-out: GI
# Malme-3M = assay: Growth inhibition of human MALME-3M cells at 10 uM after 48 hrs by sulforhodamine B assay; format: functional
# SR = assay: Growth inhibition of human SR cells at 10 uM after 48 hrs by sulforhodamine B assay; format: functional; conditions: read-out: GI
# RPMI-8226 = assay: Growth inhibition of human RPMI8226 cells at 10 uM after 48 hrs by sulforhodamine B assay; format: functional; conditions: RPMI-8226, 48 h, read-out: GI
# SF-295 = assay: Growth inhibition of human SF295 cells at 10 uM after 48 hrs by sulforhodamine B assay; format: functional; conditions: SF-295, 48 h, read-out: GI
# PC-3 = assay: Growth inhibition of human PC3 cells at 10 uM after 48 hrs by sulforhodamine B assay; format: functional; conditions: PC-3, 48 h, read-out: GI
# NCI-H460 = assay: Growth inhibition of human NCI-H460 cells at 10 uM after 48 hrs by sulforhodamine B assay; format: functional
# BT-549 = assay: Growth inhibition of human BT549 cells at 10 uM after 48 hrs by sulforhodamine B assay; format: functional
# NCI-H522 = assay: Growth inhibition of human NCI-H522 cells at 10 uM after 48 hrs by sulforhodamine B assay; format: functional
# IGROV-1 = assay: Growth inhibition of human IGROV1 cells at 10 uM after 48 hrs by sulforhodamine B assay; format: functional
# DU-145 = assay: Growth inhibition of human DU145 cells at 10 uM after 48 hrs by sulforhodamine B assay; format: functional
# TK-10 = assay: Growth inhibition of human TK10 cells at 10 uM after 48 hrs by sulforhodamine B assay; format: functional; conditions: TK-10, 48 h, read-out: GI
# CAKI-1 = assay: Growth inhibition of human CAKI-1 cells at 10 uM after 48 hrs by sulforhodamine B assay; format: functional
# SNB-75 = assay: Growth inhibition of human SNB75 cells at 10 uM after 48 hrs by sulforhodamine B assay; format: functional; conditions: SNB-75, 48 h, read-out: GI
# SK-MEL-5 = assay: Growth inhibition of human SK-MEL-5 cells at 10 uM after 48 hrs by sulforhodamine B assay; format: functional
# MDA-MB-435 = assay: Growth inhibition of human MDA-MB-435 cells at 10 uM after 48 hrs by sulforhodamine B assay; format: functional; conditions: MDA-MB-435, 48 h, read-out: GI
# SK-OV-3 = assay: Growth inhibition of human SKOV3 cells at 10 uM after 48 hrs by sulforhodamine B assay; format: functional
# NCI-H226 = assay: Growth inhibition of human NCI-H226 cells at 10 uM after 48 hrs by sulforhodamine B assay; format: functional; conditions: NCI-H226, 48 h, read-out: GI
# NCI-H322M = assay: Growth inhibition of human NCI-H322M cells at 10 uM after 48 hrs by sulforhodamine B assay; format: functional
# HCT-116 = assay: Growth inhibition of human HCT116 cells at 10 uM after 48 hrs by sulforhodamine B assay; format: functional
# 786-0 = assay: Growth inhibition of human 786-0 cells at 10 uM after 48 hrs by sulforhodamine B assay; format: functional; conditions: 786-0, 48 h, read-out: GI
# MCF7 = assay: Growth inhibition of human MCF7 cells at 10 uM after 48 hrs by sulforhodamine B assay; format: functional; conditions: MCF7, 48 h, read-out: GI
# SNB-19 = assay: Growth inhibition of human SNB19 cells at 10 uM after 48 hrs by sulforhodamine B assay; format: functional
# SW-620 = assay: Growth inhibition of human SW620 cells at 10 uM after 48 hrs by sulforhodamine B assay; format: functional
# LOX IMVI = assay: Growth inhibition of human LOXIMVI cells at 10 uM after 48 hrs by sulforhodamine B assay; format: functional; conditions: read-out: GI
# HL-60(TB) = assay: Growth inhibition of human HL-60(TB) cells at 10 uM after 48 hrs by sulforhodamine B assay; format: functional; conditions: HL-60, 48 h, read-out: GI
# MDA-MB-231 = assay: Growth inhibition of human MDA-MB-231 cells at 10 uM after 48 hrs by sulforhodamine B assay; format: functional
# UACC-62 = assay: Growth inhibition of human UACC62 cells at 10 uM after 48 hrs by sulforhodamine B assay; format: functional; conditions: UACC-62, 48 h, read-out: GI
# NCI-H23 = assay: Growth inhibition of human NCI-H23 cells at 10 uM after 48 hrs by sulforhodamine B assay; format: functional
# SN12C = assay: Growth inhibition of human SN12C cells at 10 uM after 48 hrs by sulforhodamine B assay; format: functional; conditions: read-out: GI
# SK-MEL-2 = assay: Growth inhibition of human SK-MEL-2 cells at 10 uM after 48 hrs by sulforhodamine B assay; format: functional; conditions: SK-MEL-2, 48 h, read-out: GI
# MOLT-4 = assay: Growth inhibition of human MOLT4 cells at 10 uM after 48 hrs by sulforhodamine B assay; format: functional; conditions: MOLT-4, 48 h, read-out: GI
# UACC-257 = assay: Growth inhibition of human UACC257 cells at 10 uM after 48 hrs by sulforhodamine B assay; format: functional
# NCI/ADR-RES = assay: Growth inhibition of human NCI-ADR-RES cells at 10 uM after 48 hrs by sulforhodamine B assay; format: functional
# U-251 = assay: Growth inhibition of human U251 cells at 10 uM after 48 hrs by sulforhodamine B assay; format: functional; conditions: U-251, 48 h, read-out: GI
# HCC 2998 = assay: Growth inhibition of human HCC2998 cells at 10 uM after 48 hrs by sulforhodamine B assay; format: functional
# MDA-MB-468 = assay: Growth inhibition of human MDA-MB-468 cells at 10 uM after 48 hrs by sulforhodamine B assay; format: functional; conditions: MDA-MB-468, 48 h, read-out: GI
smiles,measurement,setting,value
NS(=O)(=O)c1cnccc1N1CCN(c2ccc(Cl)c(Cl)c2)CC1,growth inhibition (GI),COLO 205,inactive
same,inhibition of growth at 10 µM,OVCAR-5,1%
same,inhibition of growth at 10 µM,"KM12; KM12, 48 h, read-out: GI",18%
same,inhibition of growth at 10 µM,"A498; A498, 48 h, read-out: GI",12%
same,growth inhibition (GI),SK-MEL-28,inactive
same,inhibition of growth at 10 µM,"HCT-15; HCT-15, 48 h, read-out: GI",27%
same,inhibition of growth at 10 µM,HOP-62,1%
same,inhibition of growth at 10 µM,T47D,72%
same,inhibition of growth at 10 µM,SF-539,16%
same,inhibition of growth at 10 µM,Malme-3M; read-out: GI,24%
same,inhibition of growth at 10 µM,SR,35%
same,inhibition of growth at 10 µM,RPMI-8226,47%
same,inhibition of growth at 10 µM,SF-295,41%
same,inhibition of growth at 10 µM,PC-3,35%
same,inhibition of growth at 10 µM,"NCI-H460; NCI-H460, 48 h, read-out: GI",16%
same,inhibition of growth at 10 µM,"BT-549; BT-549, 48 h, read-out: GI",27%
same,inhibition of growth at 10 µM,"NCI-H522; NCI-H522, 48 h, read-out: GI",43%
same,inhibition of growth at 10 µM,"IGROV-1; IGROV-1, 48 h, read-out: GI",31%
same,inhibition of growth at 10 µM,"DU-145; DU-145, 48 h, read-out: GI",7%
same,inhibition of growth at 10 µM,TK-10,9%
same,inhibition of growth at 10 µM,"CAKI-1; CAKI-1, 48 h, read-out: GI",36%
same,inhibition of growth at 10 µM,SNB-75,3%
same,inhibition of growth at 10 µM,"SK-MEL-5; SK-MEL-5, 48 h, read-out: GI",89%
same,inhibition of growth at 10 µM,MDA-MB-435,32%
same,inhibition of growth at 10 µM,"SK-OV-3; SK-OV-3, 48 h, read-out: GI",8%
same,inhibition of growth at 10 µM,NCI-H226,28%
same,inhibition of growth at 10 µM,NCI-H322M; read-out: GI,18%
same,inhibition of growth at 10 µM,"HCT-116; HCT-116, 48 h, read-out: GI",35%
same,inhibition of growth at 10 µM,786-0,15%
same,inhibition of growth at 10 µM,MCF7,37%
same,inhibition of growth at 10 µM,"SNB-19; SNB-19, 48 h, read-out: GI",5%
same,inhibition of growth at 10 µM,"SW-620; SW-620, 48 h, read-out: GI",3%
same,inhibition of growth at 10 µM,LOX IMVI,19%
same,inhibition of growth at 10 µM,HL-60(TB),18%
same,inhibition of growth at 10 µM,"MDA-MB-231; MDA-MB-231, 48 h, read-out: GI",21%
same,inhibition of growth at 10 µM,UACC-62,38%
same,inhibition of growth at 10 µM,"NCI-H23; NCI-H23, 48 h, read-out: GI",33%
same,inhibition of growth at 10 µM,SN12C,17%
same,inhibition of growth at 10 µM,SK-MEL-2,16%
same,inhibition of growth at 10 µM,MOLT-4,39%
COc1ccccc1N1CCN(c2ccncc2S(N)(=O)=O)CC1,growth inhibition (GI),COLO 205,inactive
same,inhibition of growth at 10 µM,OVCAR-5,2%
same,growth inhibition (GI),KM12,inactive
same,growth inhibition (GI),A498,inactive
same,growth inhibition (GI),SK-MEL-28,inactive
same,growth inhibition (GI),HCT-15,inactive
same,inhibition of growth at 10 µM,HOP-62,2%
same,inhibition of growth at 10 µM,T47D,2%
same,inhibition of growth at 10 µM,SF-539,5%
same,growth inhibition (GI),Malme-3M,inactive
same,inhibition of growth at 10 µM,SR,17%
same,inhibition of growth at 10 µM,RPMI-8226,3%
same,growth inhibition (GI),UACC-257,inactive
same,inhibition of growth at 10 µM,SF-295,3%
same,inhibition of growth at 10 µM,PC-3,10%
same,growth inhibition (GI),NCI-H460,inactive
same,growth inhibition (GI),BT-549,inactive
same,growth inhibition (GI),NCI-H522,inactive
same,growth inhibition (GI),IGROV-1,inactive
same,growth inhibition (GI),NCI/ADR-RES,inactive
same,growth inhibition (GI),DU-145,inactive
same,growth inhibition (GI),CAKI-1,inactive
same,inhibition of growth at 10 µM,SNB-75,10%
same,growth inhibition (GI),SK-MEL-5,inactive
same,inhibition of growth at 10 µM,U-251,1%
same,inhibition of growth at 10 µM,MDA-MB-435,2%
same,growth inhibition (GI),SK-OV-3,inactive
same,growth inhibition (GI),HCC 2998,inactive
same,inhibition of growth at 10 µM,NCI-H226,3%
same,growth inhibition (GI),NCI-H322M,inactive
same,growth inhibition (GI),HCT-116,inactive
same,inhibition of growth at 10 µM,786-0,3%
same,inhibition of growth at 10 µM,MCF7,3%
same,growth inhibition (GI),SNB-19,inactive
same,growth inhibition (GI),SW-620,inactive
same,inhibition of growth at 10 µM,LOX IMVI,2%
same,growth inhibition (GI),MDA-MB-231,inactive
same,inhibition of growth at 10 µM,MDA-MB-468,2%
same,inhibition of growth at 10 µM,UACC-62,3%
same,growth inhibition (GI),NCI-H23,inactive
same,inhibition of growth at 10 µM,SN12C,11%
same,inhibition of growth at 10 µM,SK-MEL-2,5%
same,inhibition of growth at 10 µM,MOLT-4,20%

# From ChEMBL document CHEMBL2434896, “Carbonic anhydrase inhibitors. Synthesis of heterocyclic 4-substituted pyridine-3-sulfonamide derivatives and their inhibition of the human cytosolic isozymes I and II and transmembrane tumor-associated isozymes IX and XII” (Eur J Med Chem, 2013)
